From patent publication US8030498B2, “Benzoylpyrazole compounds and herbicides containing them” (Ishihara Sangyo Kaisha, Ltd., priority 2005, dated 2011)

What was measured:
crabgrass = assay: Test Example 2: soil application on the day after sowing, growth inhibition rate, crabgrass; type: in vivo, Digitaria sanguinalis L.; settings: 250 g/ha active ingredient, observed on 19th to 24th day
Procedure, shortened: (§1)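 Pre-emergence soil treatment: one day post-sowing in upland soil, compound formulations at set active-ingredient rates were applied in 500 L/ha water. Visual rating of growth inhibition (0% untreated-equivalent to 100% complete kill) followed on days 19–24 after application.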

barnyardgrass = assay: Test Example 2: soil application on the day after sowing, growth inhibition rate, barnyardgrass; type: in vivo, Echinochloa crus-galli L.; settings: 250 g/ha active ingredient, observed on 19th to 24th day
Procedure, shortened: as §1

velvetleaf = assay: Test Example 2: soil application on the day after sowing, growth inhibition rate, velvetleaf; type: in vivo, Abutilon theophrasti MEDIC.; settings: 250 g/ha active ingredient, observed on 19th to 24th day
Procedure, shortened: as §1

[1] = test system: velvetleaf (Abutilon theophrasti MEDIC.); assay: Test Example 1: foliar treatment, growth inhibition rate, velvetleaf; type: in vivo; settings: visually observed 17th to 23rd day after application
Procedure, shortened: (§2)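 Potted upland soil; compounds as wettable powders or emulsifiable concentrates diluted in water at 500 L/ha plus 0.1 vol % spreader, foliar-sprayed at defined leaf stages (rice 1.0–2.5, wheat 1.7–3.4, corn 2.0–3.5, greenfoxtail 1.0–3.0). Growth inhibition (0–100%) scored visually 17–23 days after application.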

[2] = test system: crabgrass (Digitaria sanguinalis L.); assay: Test Example 1: foliar treatment, growth inhibition rate, crabgrass; type: in vivo; settings: visually observed 17th to 23rd day after application
Procedure, shortened: (§3)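 Visual scoring of growth inhibition, 0% (untreated) to 100% (complete kill), on days 17–23 following post-emergence spray of formulated compound in water (500 L/ha, 0.1 vol % spreader); plants treated at set leaf stages, e.g. corn 2.0–3.5, wheat 1.7–3.4.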

greenfoxtail = assay: Test Example 2: soil application on the day after sowing, growth inhibition rate, greenfoxtail; type: in vivo, Setaria viridis L.; settings: 250 g/ha active ingredient, observed on 19th to 24th day
Procedure, shortened: as §1

[3] = test system: soybean (Glycine max Merr.); assay: Test Example 1: foliar treatment, growth inhibition rate, soybean; type: in vivo; settings: visually observed 17th to 23rd day after application
Procedure, shortened: as §3

corn (Zea mays L.) = assay: Test Example 1: foliar treatment, growth inhibition rate, corn; type: in vivo; settings: visually observed 17th to 23rd day after application
Procedure, shortened: as §3

wheat = assay: Test Example 2: soil application on the day after sowing, growth inhibition rate, wheat; type: in vivo, Triticum spp.; settings: 250 g/ha active ingredient, observed on 19th to 24th day
Procedure, shortened: as §1

[4] = test system: redroot pigweed (Amaranthus retroflexus L.); assay: Test Example 1: foliar treatment, growth inhibition rate, redroot pigweed; type: in vivo; settings: visually observed 17th to 23rd day after application
Procedure, shortened: as §3

soybean = assay: Test Example 2: soil application on the day after sowing, growth inhibition rate, soybean; type: in vivo, Glycine max Merr.; settings: 250 g/ha active ingredient, observed on 19th to 24th day
Procedure, shortened: as §1

prickly sida = assay: Test Example 2: soil application on the day after sowing, growth inhibition rate, prickly sida; type: in vivo, Sida spinosa L.; settings: 250 g/ha active ingredient, observed on 19th to 24th day
Procedure, shortened: as §1

[5] = test system: barnyardgrass (Echinochloa crus-galli L.); assay: Test Example 1: foliar treatment, growth inhibition rate, barnyardgrass; type: in vivo; settings: visually observed 17th to 23rd day after application
Procedure, shortened: as §2

wheat (Triticum spp.) = assay: Test Example 1: foliar treatment, growth inhibition rate, wheat; type: in vivo; settings: visually observed 17th to 23rd day after application
Procedure, shortened: as §3

rice (Oryza sativa L.) = assay: Test Example 1: foliar treatment, growth inhibition rate, rice; type: in vivo; settings: visually observed 17th to 23rd day after application
Procedure, shortened: as §3

corn = assay: Test Example 2: soil application on the day after sowing, growth inhibition rate, corn; type: in vivo, Zea mays L.; settings: 250 g/ha active ingredient, observed on 19th to 24th day
Procedure, shortened: as §1

[6] = test system: greenfoxtail (Setaria viridis L.); assay: Test Example 1: foliar treatment, growth inhibition rate, greenfoxtail; type: in vivo; settings: visually observed 17th to 23rd day after application
Procedure, shortened: as §3

redroot pigweed = assay: Test Example 2: soil application on the day after sowing, growth inhibition rate, redroot pigweed; type: in vivo, Amaranthus retroflexus L.; settings: 250 g/ha active ingredient, observed on 19th to 24th day
Procedure, shortened: as §1

[7] = test system: prickly sida (Sida spinosa L.); assay: Test Example 1: foliar treatment, growth inhibition rate, prickly sida; type: in vivo; settings: visually observed 17th to 23rd day after application
Procedure, shortened: as §3

rice = assay: Test Example 2: soil application on the day after sowing, growth inhibition rate, rice; type: in vivo, Oryza sativa L.; settings: 250 g/ha active ingredient, observed on 19th to 24th day
Procedure, shortened: as §1

| Structure (SMILES) | Growth inhibition rate (%) Crabgrass (crabgrass) | Growth inhibition rate (%) Barnyardgrass (barnyardgrass) | Growth inhibition rate (%) Velvetleaf (velvetleaf) | Growth inhibition rate (%) Greenfoxtail (greenfoxtail) | Growth inhibition rate (%) Wheat (wheat) | Growth inhibition rate (%) Soybean (soybean) | Growth inhibition rate (%) Prickly sida (prickly sida) | Growth inhibition rate (%) Corn (corn) | Growth inhibition rate (%) redroot pigweed (redroot pigweed) | Growth inhibition rate (%) Rice (rice) | also measured |
| --- | --- | --- | --- | --- | --- | --- | --- | --- | --- | --- | --- |
| CSC(=O)Oc1c(C(=O)c2ccc(S(C)(=O)=O)c(C3=NOCC3)c2C)cnn1C [compound 40] | 100% | 100% | 90% | 100% | 10% | 60% | 85% | 0% | 100% | 90% | Growth inhibition rate (%) Velvetleaf ([1]; 31 g/ha active ingredient): 90%; Growth inhibition rate (%) Crabgrass ([2]; 31 g/ha active ingredient): 80%; Growth inhibition rate (%) Soybean ([3]; 31 g/ha active ingredient): 90%; Growth inhibition rate (%) Corn (corn (Zea mays L.); 31 g/ha active ingredient): 10%; Growth inhibition rate (%) redroot pigweed ([4]; 31 g/ha active ingredient): 90%; Growth inhibition rate (%) Barnyardgrass ([5]; 31 g/ha active ingredient): 95%; Growth inhibition rate (%) Wheat (wheat (Triticum spp.); 31 g/ha active ingredient): 0%; Growth inhibition rate (%) Rice (rice (Oryza sativa L.); 31 g/ha active ingredient): 70%; Growth inhibition rate (%) Greenfoxtail ([6]; 31 g/ha active ingredient): 95%; Growth inhibition rate (%) Prickly sida ([7]; 31 g/ha active ingredient): 70% |
| CCC(C)SC(=O)Oc1c(C(=O)c2ccc(S(C)(=O)=O)c(C(=O)OC)c2Cl)cnn1CC (stereo not shown) [compound 220] | 95% | 95% | 95% | 100% | 0% | 0% | 95% | 0% | 100% | 100% | Growth inhibition rate (%) Velvetleaf ([1]; 63 g/ha active ingredient): 90%; Growth inhibition rate (%) Crabgrass ([2]; 63 g/ha active ingredient): 60%; Growth inhibition rate (%) Soybean ([3]; 63 g/ha active ingredient): 100%; Growth inhibition rate (%) Corn (corn (Zea mays L.); 63 g/ha active ingredient): 0%; Growth inhibition rate (%) redroot pigweed ([4]; 63 g/ha active ingredient): 100%; Growth inhibition rate (%) Barnyardgrass ([5]; 63 g/ha active ingredient): 100%; Growth inhibition rate (%) Wheat (wheat (Triticum spp.); 63 g/ha active ingredient): 0%; Growth inhibition rate (%) Rice (rice (Oryza sativa L.); 63 g/ha active ingredient): 80%; Growth inhibition rate (%) Greenfoxtail ([6]; 63 g/ha active ingredient): 70%; Growth inhibition rate (%) Prickly sida ([7]; 63 g/ha active ingredient): 90% |
